This is an account of results in US5017723A, “Substituted ethylamines, their preparation process, their use as medicine and their synthesising agents” (Jouveinal S.A., priority 1990, dated 1991).

Counter-ions that a name gives are not always drawn. Like-named read-outs stand apart in the source and are kept apart here.

This experiment deals with convulsion induced by picrotoxine in mice. Briefly: Protection against picrotoxine-induced convulsion (suppression of the tonic extension phase). Type of experiment: in vivo, male Swiss mice. Particulars: for responders at 50 mg/kg / responders at 100 mg/kg / ED50: Mus musculus; for responders at 50 mg/kg: 0.5 h, read-out: i.p.: % prot. (percentage of protected animals), 50 mg/kg i.p., picrotoxine 24 mg/kg i.p. 30 min later; for responders at 100 mg/kg: 1 h, read-out: p.o.: % prot. (percentage of protected animals), 100 mg/kg p.o., picrotoxine 24 mg/kg i.p. 60 min later; for i.p.: % prot. (percentage of protected animals): 50 mg/kg i.p., picrotoxine 24 mg/kg i.p. 30 min later. An excerpt: The psychotropic properties of the compounds have been determined by the protection of the induced convulsion by picrotoxine for mice, which is achieved by the method derived from that of Krall et al., "Epilepsia", 1978, 19, p. 409-428.
The administration of picrotoxine caused a convulsive crisis in the animal characterised by a myoclonic extension syndrome followed by the extension of the limbs causing the animal to die. Certain substances, particularly those active on the complex GABA/benzodiazepines/Cl-ionophore makes it possible to protect the animals from this convulsive crisis.
In practice the study is carried out on batches of 10 male "Swiss" mice weighing approximately 20 g, which are administered with the product to be studied in aqueous solution either by intraperitoneal route (i.p.) at the rate of 50 mg/kg and in a volume of 0.2 ml of solution per animal, or by oral route (p.o) in a volume of 2.0 ml of solution per animal.
An injection of a solution of picrotoxine at the rate of 24 mg/kg in a volume of 0.2 ml per animal is then administered by interperitoneal route, either 30 minutes after administering the product by interperitoneal route or 60 minutes after administering the product by oral route. The dose of the product injected causing a clonic crisis, which results in untreated animals dying. The suppression of the extension tonic phase in the animals treated under the conditions of the test is observed. The results are expressed:
either in percentages of protected animals of this phase to the reaction of 50 mg/kg of the compound of the study administered by i.p. route or 100 mg/kg by p.o route,
or in DE50 for each of these routes, which is the efficient dosage of the test compound expressed in mg/kg protecting 50% of the animals of this extension phase. The significant value of the results being generally indicated in the following manner:
* Significant result at p<0.05
** Significant result at p<0.01
*** Significant highly significant at p<0.001.

[1] abbreviates: ip, * p<0.05, ** p<0.01, *** p<0.001.
Setting [2] is: po, * p<0.05, ** p<0.01, *** p<0.001.
[3] abbreviates: * p<0.05, ** p<0.01, *** p<0.001.

As for `CCC(CC=Cc1ccsc1)(c1ccsc1)N(C)C` (stereo not shown) [Example 70, N.N-dimethyl-a-ethyl-a-[3-(3-thienyl)-2-propenyl]-3-thienylmethylamine], under setting [1], the responders at 50 mg/kg was 80%. The responders at 100 mg/kg under setting [2] is 100%.

Turning to `CCC(N)(CC=Cc1ccc(Cl)c(Cl)c1)c1ccc(C)cc1` (stereo not shown) [Example 12, a-(3',4'-dichloro)cinnamyl-a-ethyl-p.methylbenzylamine], the ED50 is, setting by setting: (ip, read-out: i.p.: DE50) 37.3 mg/kg; (po, read-out: p.o.: DE50) 50 mg/kg. In the case of `CCC(CC=Cc1ccccc1)(c1ccccc1)N(C)C` (single isomer, unassigned; (-)) [Example 49, (-)a-cinnamyl-N,N-dimethyl-a-ethylbenzylamine], under setting [1], the responders at 50 mg/kg was determined as 100%. Under setting [2], the responders at 100 mg/kg came out at 100%. Regarding `CCC(CC=Cc1ccccc1)(NC)c1cccc(C(F)(F)F)c1` (stereo not shown) [Example 21, a-cinnamyl-a-ethyl-N-methyl-(m.trifluoromethyl)benzylamine], under setting [1], the responders at 50 mg/kg stood at 90%. In addition, the responders at 100 mg/kg under setting [2] was found to be 70%.

For the molecule `CCC(CC=Cc1ccccc1)(c1cccs1)N(C)C` (stereo not shown) [Example 62, a-cinnamyl-N,N-dimethyl-a-ethyl-2-thienylmethylamine], the responders at 100 mg/kg under setting [2] came out at 80%. In the case of `CCC(CC=Cc1ccccc1)(c1ccccc1)N(C)C` (stereo not shown) [Example 30, a-cinnamyl-N,N-dimethyl-a-ethyl-benzylamine], under setting [1], the responders at 50 mg/kg was 100%. Moreover, the responders at 100 mg/kg under setting [2] worked out at 100%. `CCC(CC=Cc1ccccc1)(c1ccccc1)N(C)C` (single isomer, unassigned; (+)) [Example 50, (+) a-cinnamyl-N,N-dimethyl-a-ethyl-benzylamine]: the “i.p.: % prot. (percentage of protected animals)” value under setting [3] is listed as 100%. Take `CCC(N)(CC=Cc1ccccc1)c1ccc(OC)cc1` (stereo not shown) [Example 8, a-cinnamyl-a-ethyl-p.metoxybenzylamine]: the responders at 50 mg/kg under setting [1] worked out at 80%. Consider `CCC(CC=Cc1ccco1)(c1cccs1)N(C)C` (stereo not shown) [Example 64, N,N-dimethyl-a-ethyl-a-[3-(2-furyl)-2-propenyl]-2-thienylmethylamine], for which, under setting [1], the responders at 50 mg/kg worked out at 70%. Moreover, the responders at 100 mg/kg under setting [2] was 50%. Regarding `CCC(N)(CC=Cc1ccccc1)c1cccc(C(F)(F)F)c1` (stereo not shown) [Example 7, a-cinnamyl-a-ethyl-(m.trifluoromethyl)benzylamine], under setting [1], the responders at 50 mg/kg is 100%. With `CCC(CC=Cc1cccs1)(c1ccccc1)N(C)C` (stereo not shown) [Example 55, N,N-dimethyl-a-ethyl-a-[30(2-thienyl)-2-propenyl]-benzylamine], under setting [1], the responders at 50 mg/kg turned out to be 70%. Further, the responders at 100 mg/kg under setting [2] was 70%. `CCC(CC=Cc1cccs1)(c1cccs1)N(C)C` (stereo not shown) [Example 65, N,N-dimethyl-a-ethyl-a-[3-(2-thienyl)-2-propenyl]-2-thienylmethylamine]: the responders at 50 mg/kg under setting [1] was 90%. The responders at 100 mg/kg under setting [2] turned out to be 50%. As for `CCC(N)(CC=Cc1ccc(Cl)c(Cl)c1)c1ccc(OC)cc1` (stereo not shown) [Example 13], for the setting “ip, read-out: i.p.: DE50”, the ED50 stood at 23.2 mg/kg. Moreover, the responders at 100 mg/kg under setting [2] stood at 50%. In the case of `CCC(CC=Cc1ccccc1)(NC)c1ccc(Cl)c(Cl)c1` (stereo not shown) [Example 20, a-cinnamyl-a-ethyl-N-methyl-3,4-dichlorobenzylamine], the responders at 100 mg/kg under setting [2] was 80%. For the molecule `CCC(CC=Cc1ccccc1)(NC)c1ccccc1` (single isomer, unassigned; (-)) [Example 28, (-) a-cinnamyl-a-ethyl-N-methyl benzylamine], under setting [1], the responders at 50 mg/kg stood at 100%. Further, under setting [2], the responders at 100 mg/kg came to 100%. For the molecule `CCC(CC=Cc1cccs1)(c1ccco1)N(C)C` (stereo not shown) [Example 61, N,N-dimethyl-a-ethyl-a-[3-(2-thienyl)-2-propenyl]-2-furfurylamine], the responders at 50 mg/kg under setting [1] worked out at 50%.

With `CCC(N)(CC=Cc1ccccc1)c1ccc(Cl)c(Cl)c1` (stereo not shown) [Example 5, a-cinnamyl-a-ethyl-3,4 dichlorobenzylamine], under setting [1], the responders at 50 mg/kg came to 50%. As to `CCC(N)(CC=Cc1ccccc1)c1ccccc1` (single isomer, unassigned) [Example 16A, (-) tartrate of (+) a-cinnamyl-a-ethyl-benzylamine], the responders at 50 mg/kg under setting [1] turned out to be 90%. Further, under setting [2], the responders at 100 mg/kg is 100%. Consider `CC(C)C(N)(CC=Cc1ccc(Cl)c(Cl)c1)c1ccccc1` (stereo not shown) [Example 11, a-(3',4'-dichloro)cinnamyl-a-isopropylbenzylamine], for which the responders at 50 mg/kg under setting [1] came out at 70%. In addition, the responders at 100 mg/kg under setting [2] was 100%.

`CCC(CC=Cc1ccccc1)(NC)c1ccccc1` (single isomer, unassigned; (+)) [Example 29, (+) a-cinnamyl-a-ethyl-N-methyl benzylamine]: under setting [3], the “i.p.: % prot. (percentage of protected animals)” value was found to be 100%. On to `CCC(N)(CC=Cc1ccccc1)c1ccccc1` (single isomer, unassigned) [Example 16B, (+) tartrate of (-)a-cinnamyl-a-ethyl benzylamine], for which the “i.p.: % prot. (percentage of protected animals)” value under setting [3] is 100%. In addition, the “p.o.: % prot. (percentage of protected animals)” value (100 mg/kg p.o., picrotoxine 24 mg/kg i.p. 60 min later, * p<0.05, ** p<0.01, *** p<0.001) is 100%. `CCC(N)(CC=Cc1ccc(Cl)c(Cl)c1)c1cccc(C(F)(F)F)c1` (stereo not shown) [Example 15, a-(3',4'-dichloro)cinnamyl-a-ethyl-m.trifluoromethylbenzylamin]: the ED50 (ip, read-out: i.p.: DE50) is above 25 mg/kg. `CCC(N)(CC=Cc1ccccc1)c1ccc(Cl)cc1` (single isomer, unassigned; (+)) [Example 17A, (+) a-cinnamyl-a-ethyl-p.chlorobenzylamine]: the responders at 50 mg/kg under setting [1] was determined as 80%. For the same molecule, under setting [2], the responders at 100 mg/kg came out at 50%. Regarding `CCC(CC=Cc1ccccc1)(c1ccc(C(F)(F)F)cc1)N(C)C` (stereo not shown) [Example 34, a-cinnamyl-N,N-dimethyl-a-ethyl-p.trifluoromethylbenzylamine], the responders at 50 mg/kg under setting [1] was 80%. Further, the responders at 100 mg/kg under setting [2] was 60%. As for `CCC(N)(CC=Cc1ccccc1)c1ccc(Cl)cc1` (stereo not shown) [Example 4, a-cinnamyl-a-ethyl-p.chlorobenzylamine], under setting [1], the responders at 50 mg/kg amounted to 60%. In the case of `CCC(CC=Cc1ccccc1)(c1ccco1)N(C)C` (stereo not shown) [Example 59, a-cinnamyl-N,N-dimethyl-a-ethyl-2-furfurylamine], the responders at 50 mg/kg under setting [1] stood at 90%. Moreover, the responders at 100 mg/kg under setting [2] worked out at 100%.

Take `CCC(N)(CC=Cc1ccc(Cl)c(Cl)c1)c1ccccc1` (stereo not shown) [Example 10, a-(3',4'-dichloro) cinnamyl-a-ethyl-benzylamine]: the responders at 50 mg/kg under setting [1] turned out to be 90%.

As for `CCC(C[C@@H]1C[C@H]1c1ccccc1)(c1cc(OC)c(OC)c(OC)c1)N(C)C` (relative stereo) [Example 54, trans N,N-dimethyl-a-ethyl-a-(2-phenyl-1-cyclopropylmethyl)-3,4,5-trimethoxybenzylamine], the responders at 50 mg/kg under setting [1] was 70%. Consider `CCC(C[C@@H]1C[C@H]1c1ccccc1)(c1ccccn1)N(C)C` (relative stereo) [Example 58, trans N,N-dimethyl-a-ethyl-a-(2-phenyl-1-cyclopropylmethyl)-(2-pyridyl)methanamine], for which, under setting [1], the responders at 50 mg/kg worked out at 70%. The responders at 100 mg/kg under setting [2] is 80%.

As for `CCC(CC=Cc1cccs1)(c1ccsc1)N(C)C` (stereo not shown) [Example 69, N,N-dimethyl-a-ethyl-a-[3-(2-thienyl)-2-propenyl]-3-thienylmethylamine], the responders at 50 mg/kg under setting [1] stood at 90%. Moreover, the responders at 100 mg/kg under setting [2] was found to be 80%. Regarding `CN(C)C(C)(CC=Cc1ccccc1)c1ccccc1` (stereo not shown) [Example 40, a-cinnamyl-N,N-dimethyl-a-methyl-benzylamine], the ED50 turned out to be 16.6 mg/kg (ip, read-out: i.p.: DE50) and 37.7 mg/kg (po, read-out: p.o.: DE50). In the case of `CN(C)C(C)(CC=Cc1ccc(Cl)c(Cl)c1)c1ccccc1` (stereo not shown) [Example 48, a-(3.4 dichloro)cinnamyl-N,N-dimethyl-a-methyl-benzylamine], under setting [1], the responders at 50 mg/kg turned out to be 90%. Turning to `CC(C)C(CC=Cc1ccccc1)(c1ccccc1)N(C)C` (stereo not shown) [Example 41, a-cinnamyl-N,N-dimethyl-a-isopropylbenzylamine], the ED50 (po, read-out: p.o.: DE50) is 78.4 mg/kg. Take `C=CCN(C)C(CC)(CC=Cc1ccccc1)c1ccccc1` (stereo not shown) [Example 38, N-allyl-a-cinnamyl-a-ethyl-N-methylbenzylamine]: the responders at 50 mg/kg under setting [1] came out at 80%. Regarding `CCC(C[C@@H]1C[C@H]1c1ccccc1)(c1ccco1)N(C)C` (relative stereo) [Example 60, trans N,N-dimethyl-a-ethyl-a-(2-phenyl-1-cyclopropylmethyl)-2-furfurylamine], the responders at 50 mg/kg under setting [1] came to 80%. For the same molecule, the responders at 100 mg/kg under setting [2] is 60%.
